Test results taken from patent US5214045A, “Amino acid containing acrylamide derivatives for ulcer prevention or treatment” (Richter Gedeon Vegyeszeti Gyar RT, priority 1989, dated 1993).

Experiments:
[1] = test system: gastric injuries induced by acidic alcohol; experiment: Assay of gastric injuries induced by acidic alcohol; assay type: in vivo; details: female rats; for ED50: Rattus norvegicus, po, pretreatment 30 min, length of haemorrhagic lesions
Method: 1) Assay of gastric injuries induced by acidic alcohol
Female rats weighing about 120 to 150 g fasted for 24 hours were used in this test. Test compounds suspended with Tween 80 were given orally to the animals through an intragastric tube. After a certain period (pretreatmenttime) acidic alcohol was given through the intragastric tube at a dose or 0.5 ml per 100 g of body weight. The animals were sacrificed after 1 hour, their stomachs were removed and incised along the great curve. The length of the reddish-brown strips (haemorrhagic lesions) was measured and the mean total length per stomach was calculated. The biological activity of the test compounds was given and compared to that of the control group. the results are shown in Tables 1 and 2 below.

gastric acid secretion = experiment: Assay of the inhibition of gastric acid secretion by using pylorus ligature; assay type: in vivo; details: female Wistar rats, 4 hours
Method: 2) Assay of the inhibition of gastric acid secretion by using pylorus ligature
[Shay et al., Gastroenterology, 5, 43-61 (1945)]
Before ligating the pylorus, the test compounds suspended with Tween were given orally at a volume of 0.5 ml per […] of body weight to female Wistar rats fasted previously for 20 hours. The animals were sacrificed 4 hours after the operation, and the amount of the acid in the stomach was measured by titration with 0.01N sodium hydroxide solution in the presence of phenolphthalein indicator. The pH value of the content of the stomach was measured by using a pH-meter (Radelkis, Type OP-211/1).

Structure (SMILES)	% Inhibition at a dose of 10 mg/kg p.o. (pretreatment: 30 min) [1] [%]	% Inhibition in the amount of the acid at a dose of 25 mg/kg p.o. (pretreatment: 30 min) (gastric acid secretion) [%]	ED50 [1] [mg/kg]
CCOC(=O)C[C@@H](NC(=O)/C=C/Sc1ccccc1)C(=O)OCC [E, Diethyl N-[3-phenylthio-2(E)-propenoyl]-(R)-aspartate]	20	20	–
NC(=O)[C@@H]1CCCN1C(=O)/C=C/S(=O)(=O)c1ccccc1 [G, 1-[3-Phenylsulfonyl-2(E)-propenoyl]-2(S)-carbamoylpyrrolidine]	–	30	4.5
CCOC(=O)C[C@@H](NC(=O)/C=C/S(=O)(=O)c1ccccc1)C(=O)OCC [B, Diethyl N-[3-phenylsulfonyl-2(E)-propenoyl]-(R)-aspartate]	–	–	3.5
CCOC(=O)C[C@H](NC(=O)/C=C/Sc1ccccc1)C(=O)OCC [F, Diethyl N-[3-phenylthio-2(E)-propenoyl]-(S)-aspartate]	20	20	–
COC(=O)[C@H](CCSC)NC(=O)/C=C/S(=O)(=O)c1ccccc1 [D, Methyl 2(S)-[3-phenylsulfonyl-2(E)-propenoylamino]-4-methylthiobutyrate]	–	–	3.5
CCOC(=O)[C@H](C)NC(=O)/C=C/S(=O)(=O)c1ccccc1 [I, Ethyl N-[3-phenylsulfonyl-2(E)-propenoyl]-(S)alanate]	–	20	2.2
COC(=O)[C@@H]1CSCN1C(=O)/C=C\Sc1ccccc1 [J, Methyl N-[3-phenylthio-2(Z)-propenoyl]-(R)-thiazolidine-4-carboxylate]	20	–	–
O=C(/C=C/S(=O)(=O)c1ccccc1)N1CCN(c2ccccc2)CC1 [C, 1-[3-Phenylsulfonyl-2(E)-propenoyl]-4-phenyl-piperazine]	–	20	–
CCOC(=O)CNC(=O)/C=C/S(=O)(=O)c1ccccc1 [H, Ethyl N-[3-phenylsulfonyl-2(E)-propenoyl]glycinate]	–	30	1.6
CCOC(=O)C[C@@H](NC(=O)/C=C/[S+]([O-])c1ccccc1)C(=O)OCC (stereo partly drawn) [A, Diethyl N-[3-phenylsulfinyl-2(E)-propenoyl]-(R)-aspartate]	–	30	2.1
O=C(O)C[C@@H](NC(=O)/C=C/S(=O)(=O)c1ccccc1)C(=O)O [K, Magnesium N-[3-phenylsulfonyl-2(E)-propenoyl]-(R)aspartate.4H2 O]	–	30	–
